Source: paper PMC2784637 (Biochemistry, 2009)

Target: T1, cyt bc1 (ubihydroquinone:cytochrome c oxidoreductase) (Rhodobacter capsulatus, UniProt D5ANZ2+D5ANZ3)
T1 sequence (D5ANZ3 2-437): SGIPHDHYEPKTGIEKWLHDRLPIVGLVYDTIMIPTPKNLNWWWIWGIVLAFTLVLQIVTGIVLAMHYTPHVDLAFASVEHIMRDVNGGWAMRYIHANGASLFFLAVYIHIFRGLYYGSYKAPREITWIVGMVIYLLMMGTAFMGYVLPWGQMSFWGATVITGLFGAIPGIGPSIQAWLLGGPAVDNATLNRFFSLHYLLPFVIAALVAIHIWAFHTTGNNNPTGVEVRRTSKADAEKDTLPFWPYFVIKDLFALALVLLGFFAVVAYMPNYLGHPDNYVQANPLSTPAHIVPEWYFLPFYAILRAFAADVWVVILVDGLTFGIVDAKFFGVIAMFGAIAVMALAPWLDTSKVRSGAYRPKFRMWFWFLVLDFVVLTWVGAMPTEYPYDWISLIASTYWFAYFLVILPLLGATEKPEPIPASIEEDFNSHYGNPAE
T1 sequence (D5ANZ2 1-191): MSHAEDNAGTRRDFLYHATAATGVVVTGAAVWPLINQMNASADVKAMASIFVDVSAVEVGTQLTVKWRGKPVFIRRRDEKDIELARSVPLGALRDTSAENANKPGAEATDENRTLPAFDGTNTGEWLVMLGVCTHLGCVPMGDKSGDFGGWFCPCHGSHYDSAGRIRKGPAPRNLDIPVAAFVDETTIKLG
T1 sequence (D5ANZ4 22-279 partner): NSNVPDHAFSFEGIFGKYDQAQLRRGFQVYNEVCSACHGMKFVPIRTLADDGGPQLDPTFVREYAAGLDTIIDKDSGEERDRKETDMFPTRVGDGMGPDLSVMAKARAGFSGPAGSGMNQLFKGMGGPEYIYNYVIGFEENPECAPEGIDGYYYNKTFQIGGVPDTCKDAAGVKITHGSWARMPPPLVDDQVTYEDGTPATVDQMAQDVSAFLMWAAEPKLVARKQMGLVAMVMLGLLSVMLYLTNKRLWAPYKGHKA
Test: light-activated cyt b reduction and cyt c rereduction kinetics
Type: biochemical
Conditions: chromatophore membranes, 10 uM, pH 7.0, Eh 100 mV; Qo site

In the case of `CO/C(=C/C(N)=O)[C@H](C)[C@H](/C=C/c1csc(-c2csc([C@@H](C)/C=C/C=C/C(C)C)n2)n1)OC` [myxothiazol], the “light-activated cyt b reduction and cyt c rereduction kinetics” value is reported as “addition of myxothiazol completely abolished the kinetics by displacing the Qo site occupant”.
